How the values were obtained:
[1] = target: T1, Dual specificity protein kinase CLK4 (Homo sapiens, UniProt Q9HAZ1); assay: Inhibition of CLK4 (unknown origin) by bioluminescence assay
[2] = target: T2, Dual specificity tyrosine-phosphorylation-regulated kinase 1A (Homo sapiens, UniProt Q13627); assay: Inhibition of DYRK1A (unknown origin) by bioluminescence assay
[3] = target: T2, Dual specificity tyrosine-phosphorylation-regulated kinase 1A
[4] = target: Dual specificity protein kinase CLK2 (Homo sapiens, UniProt P49760)
Dual specificity protein kinase CLK2, sequence (P49760 whole entry): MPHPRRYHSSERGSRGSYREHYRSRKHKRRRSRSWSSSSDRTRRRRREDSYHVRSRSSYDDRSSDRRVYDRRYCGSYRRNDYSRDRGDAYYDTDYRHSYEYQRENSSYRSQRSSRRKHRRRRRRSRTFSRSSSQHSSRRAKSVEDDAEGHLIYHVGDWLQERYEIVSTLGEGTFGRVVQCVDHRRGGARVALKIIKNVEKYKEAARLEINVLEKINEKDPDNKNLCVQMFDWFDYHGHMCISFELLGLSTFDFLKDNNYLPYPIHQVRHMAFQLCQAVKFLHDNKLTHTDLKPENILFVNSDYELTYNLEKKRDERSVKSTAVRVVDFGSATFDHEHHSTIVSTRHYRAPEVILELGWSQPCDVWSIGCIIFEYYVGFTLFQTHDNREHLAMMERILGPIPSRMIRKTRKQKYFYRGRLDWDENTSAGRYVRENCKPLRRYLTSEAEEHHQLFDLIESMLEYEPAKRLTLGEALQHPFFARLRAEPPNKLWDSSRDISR

[5] = target: Dual specificity protein kinase CLK1 (Homo sapiens, UniProt P49759)
Dual specificity protein kinase CLK1, sequence (P49759 whole entry): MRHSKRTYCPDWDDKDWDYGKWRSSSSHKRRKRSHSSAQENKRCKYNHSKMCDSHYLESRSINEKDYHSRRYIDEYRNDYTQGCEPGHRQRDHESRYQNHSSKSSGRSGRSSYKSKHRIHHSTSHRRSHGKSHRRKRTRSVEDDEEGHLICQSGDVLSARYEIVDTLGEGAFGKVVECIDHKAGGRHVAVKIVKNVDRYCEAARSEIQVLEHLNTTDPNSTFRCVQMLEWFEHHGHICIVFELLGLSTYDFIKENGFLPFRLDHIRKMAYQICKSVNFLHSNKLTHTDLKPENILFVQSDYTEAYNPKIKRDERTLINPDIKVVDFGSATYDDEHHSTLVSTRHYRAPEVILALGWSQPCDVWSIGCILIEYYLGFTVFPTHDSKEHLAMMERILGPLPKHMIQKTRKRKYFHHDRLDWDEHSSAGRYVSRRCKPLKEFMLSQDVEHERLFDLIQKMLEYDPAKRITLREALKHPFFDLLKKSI

[6] = target: T1, Dual specificity protein kinase CLK4
[7] = target: Dual specificity tyrosine-phosphorylation-regulated kinase 1B (Homo sapiens, UniProt Q9Y463)
Dual specificity tyrosine-phosphorylation-regulated kinase 1B, sequence (Q9Y463 whole entry): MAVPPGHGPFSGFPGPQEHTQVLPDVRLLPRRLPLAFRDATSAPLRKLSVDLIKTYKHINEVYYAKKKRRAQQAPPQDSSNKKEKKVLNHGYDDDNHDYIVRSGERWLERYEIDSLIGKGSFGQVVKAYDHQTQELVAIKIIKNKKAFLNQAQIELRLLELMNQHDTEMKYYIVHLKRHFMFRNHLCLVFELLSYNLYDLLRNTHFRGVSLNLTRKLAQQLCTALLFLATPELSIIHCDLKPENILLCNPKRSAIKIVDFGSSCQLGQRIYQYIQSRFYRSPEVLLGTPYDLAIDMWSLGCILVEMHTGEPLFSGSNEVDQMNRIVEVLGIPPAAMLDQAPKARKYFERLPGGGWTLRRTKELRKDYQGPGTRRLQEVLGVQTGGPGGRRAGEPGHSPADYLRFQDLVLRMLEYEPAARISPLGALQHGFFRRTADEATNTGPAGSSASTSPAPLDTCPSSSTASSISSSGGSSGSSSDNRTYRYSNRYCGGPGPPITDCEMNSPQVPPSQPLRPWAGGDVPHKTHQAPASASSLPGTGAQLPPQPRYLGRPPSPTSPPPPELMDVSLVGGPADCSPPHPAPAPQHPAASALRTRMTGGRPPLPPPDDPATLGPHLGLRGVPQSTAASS

T1 sequence (Q9HAZ1 whole entry): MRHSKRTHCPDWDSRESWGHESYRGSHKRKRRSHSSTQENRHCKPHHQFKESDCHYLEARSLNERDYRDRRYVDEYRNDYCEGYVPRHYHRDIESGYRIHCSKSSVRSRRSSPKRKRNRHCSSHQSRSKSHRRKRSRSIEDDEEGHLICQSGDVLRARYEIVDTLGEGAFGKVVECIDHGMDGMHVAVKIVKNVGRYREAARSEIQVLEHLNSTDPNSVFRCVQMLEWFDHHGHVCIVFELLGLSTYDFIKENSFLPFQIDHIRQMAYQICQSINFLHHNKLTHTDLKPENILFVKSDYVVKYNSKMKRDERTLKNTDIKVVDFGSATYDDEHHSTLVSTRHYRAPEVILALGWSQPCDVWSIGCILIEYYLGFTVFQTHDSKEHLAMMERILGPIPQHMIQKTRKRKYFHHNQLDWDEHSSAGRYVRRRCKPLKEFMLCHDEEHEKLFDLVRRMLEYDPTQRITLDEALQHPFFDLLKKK

| IC50 ([1]; read-out: IC50) | IC50 [2] | Compound | other results |
| --- | --- | --- | --- |
| 9.2 µM | – | c1ccc(CNc2ccnc(-c3ccc4c(c3)OCO4)n2)nc1 | – |
| 9.2 µM | Not Active | Brc1cc(Br)cc(CNc2ccnc(-c3ccc4c(c3)OCO4)n2)c1 | – |
| – | Not Active | CN(C)c1ccc(-c2nccc(NCc3ccccc3)n2)cc1 | IC50 [1]: Not Active |
| 0.21 µM | – | COc1ccc(-c2ccnc(NCc3ccc(Cl)c(Cl)c3)n2)cc1 | IC50 [3]: 0.203 µM; IC50 [4]: 0.409 µM; IC50 [5]: 0.076 µM; IC50 [6]: 0.092 µM; IC50 [7]: 0.411 µM; IC50 ([2]; read-out: IC50): 1.16 µM |
| 0.29 µM | – | c1cncc(CNc2ccnc(-c3ccc4cn[nH]c4c3)n2)c1 | IC50 [3]: 1.43 µM; IC50 [4]: 1.9 µM; IC50 [5]: 1.6 µM; IC50 [6]: 1.29 µM; IC50 [7]: 0.829 µM; IC50 ([2]; read-out: IC50): 2.07 µM |
| 29.2 µM | Not Active | COc1ccc(-c2nccc(NCc3ccccc3)n2)cc1 | – |
| – | Not Active | COc1ccc(-c2nccc(NCc3ccc(C)cc3)n2)cc1 | IC50 [1]: Not Active |
| 4.1 µM | Not Active | Clc1cc(Cl)cc(CNc2ccnc(-c3ccc4c(c3)OCO4)n2)c1 | – |
| 5.2 µM | – | Fc1cc(F)cc(CNc2ccnc(-c3ccc4c(c3)OCO4)n2)c1 | – |
| 23.2 µM | – | c1cc(CNc2ccnc(-c3ccc4c(c3)OCO4)n2)ccn1 | – |
| 31.6 µM | – | c1ccc(CNc2ccnc(-c3cccnc3)n2)cc1 | – |
| 0.29 µM | – | COc1ccc(-c2ccnc(NCc3ccc(Cl)cc3)n2)cc1 | IC50 [3]: 0.558 µM; IC50 [4]: 1.09 µM; IC50 [5]: 0.277 µM; IC50 [6]: 0.319 µM; IC50 [7]: 0.871 µM; IC50 ([2]; read-out: IC50): 2.07 µM |
| 26 µM | – | COc1ccc(-c2ccnc(NCc3ccc(Cl)c(Cl)c3)n2)cc1OC | IC50 [5]: > 10 µM; IC50 [6]: > 10 µM; IC50 ([2]; read-out: IC50): 26 µM |
| 23.2 µM | Not Active | Cc1ccc(CNc2ccnc(-c3ccc4c(c3)OCO4)n2)cc1 | – |
| 26 µM | Not Active | Clc1ccc(CNc2ccnc(-c3ccc4c(c3)OCO4)n2)cc1Cl | – |
| 23.2 µM | – | c1ccc(CNc2ccnc(-c3ccc4c(c3)OCO4)n2)cc1 | IC50 ([2]; read-out: IC50): 26 µM |
| 14.6 µM | Not Active | COc1ccc(-c2nccc(NCc3ccc(Cl)c(Cl)c3)n2)cc1 | – |
| – | Not Active | CN(C)c1ccc(-c2nccc(NCc3ccc(Cl)cc3)n2)cc1 | IC50 [1]: Not Active |
| 0.05 µM | – | Clc1ccc(CNc2nccc(-c3ccc4c(c3)OCO4)n2)cc1 | – |
| 1.64 µM | – | Clc1cc(Cl)cc(CNc2cc(-c3ccc4c(c3)OCO4)ncn2)c1 | – |
| 29.2 µM | Not Active | COc1ccc(-c2ncccn2)cc1 | – |

| IC50 ([1]; read-out: IC50) | IC50 [2] | Compound | other results |
| --- | --- | --- | --- |
| – | Not Active | Cc1noc(C)c1-c1ncccn1 | IC50 [1]: Not Active |
| 18.4 µM | – | Clc1cncc(CNc2ccnc(-c3ccc4c(c3)OCO4)n2)c1 | – |
| 15.8 µM | – | COc1cccc(-c2nccc(NCc3ccccc3)n2)c1 | – |
| 41.2 µM | – | c1ccc2ncc(CNc3ccnc(-c4ccc5c(c4)OCO5)n3)cc2c1 | – |
| – | Not Active | Cc1ccc(CNc2ccnc(-c3ccc(N(C)C)cc3)n2)cc1 | IC50 [1]: Not Active |
| – | – | COc1ccc(CNc2ccnc(-c3ccc4c(c3)OCO4)n2)cc1 | IC50 [1]: Not Active |
| 13 µM | – | COc1cccc(-c2nccc(NCc3ccc(Cl)cc3)n2)c1 | – |
| – | – | c1cncc(CNc2ncncc2-c2ccc3c(c2)OCO3)c1 | IC50 [3]: > 10 µM; IC50 [4]: > 10 µM; IC50 [5]: 4.8 µM; IC50 [7]: > 10 µM; IC50 ([2]; read-out: IC50): 26 µM |
| – | Not Active | Cc1noc(C)c1-c1nccc(NCc2ccc(Cl)cc2)n1 | IC50 [1]: Not Active |
| 23.2 µM | – | COc1ccc(CNc2ccnc(-c3cccc(OC)c3)n2)cc1 | – |
| 14.6 µM | Not Active | COc1cccc(-c2nccc(NCc3ccc(Cl)c(Cl)c3)n2)c1 | – |
| 5.2 µM | – | Fc1ccc(CNc2ccnc(-c3ccc4c(c3)OCO4)n2)cc1Cl | – |
| 36.8 µM | Not Active | COc1ccc(CNc2ccnc(-c3ccc(OC)cc3)n2)cc1 | – |
| – | Not Active | COc1ccc(CNc2ccnc(-c3c(C)noc3C)n2)cc1 | IC50 [1]: Not Active |
| 9.2 µM | – | COc1ccc(CNc2ccnc(-c3cccc(C#N)c3)n2)cc1 | – |
| 8.2 µM | – | Fc1cc(CNc2ccnc(-c3ccc4c(c3)OCO4)n2)cc(F)c1F | – |
| 8.2 µM | – | Fc1cncc(CNc2ccnc(-c3ccc4c(c3)OCO4)n2)c1 | – |
| 0.063 µM | – | c1cncc(CNc2ccnc(-c3ccc4c(c3)OCO4)n2)c1 | – |
| – | Not Active | CN(C)c1ccc(-c2nccc(NCc3ccc(Cl)c(Cl)c3)n2)cc1 | IC50 [1]: Not Active |
| – | – | Clc1ccc(CNc2ccnc(-c3ccc4[nH]ncc4c3)n2)cc1Cl | IC50 [3]: 2.35 µM; IC50 [5]: 1.78 µM; IC50 [7]: 0.514 µM; IC50 ([2]; read-out: IC50): 4.63 µM |
| 41.2 µM | – | COc1cccc(-c2nccc(NCc3ccc(C)cc3)n2)c1 | – |

| IC50 ([1]; read-out: IC50) | IC50 [2] | Compound | other results |
| --- | --- | --- | --- |
| 13 µM | – | Fc1cc(CNc2ccnc(-c3ccc4c(c3)OCO4)n2)ccc1Cl | – |
| – | Not Active | c1cnc(-c2ccc3c(c2)OCO3)nc1 | IC50 [1]: Not Active |
| 8.2 µM | – | Brc1cncc(CNc2ccnc(-c3ccc4c(c3)OCO4)n2)c1 | – |
| – | Not Active | Cc1noc(C)c1-c1nccc(NCc2ccc(Cl)c(Cl)c2)n1 | IC50 [1]: Not Active |
| 14.1 µM | – | N#Cc1cccc(-c2nccc(NCc3ccccc3)n2)c1 | – |
| 16.4 µM | – | Clc1ccc(CNc2ccnc(-c3cccnc3)n2)cc1 | – |
| – | Not Active | COc1ccc(CNc2ccnc(-c3ccc(N(C)C)cc3)n2)cc1 | IC50 [1]: Not Active |
| 2.2 µM | – | COc1ccccc1CNc1ncncc1-c1ccc2c(c1)OCO2 | – |
| 26 µM | Not Active | N#Cc1cccc(-c2ncccn2)c1 | – |
| 9.2 µM | Not Active | Brc1ccc(CNc2ccnc(-c3ccc4c(c3)OCO4)n2)cc1Br | – |
| 13 µM | – | Fc1ccc(CNc2ccnc(-c3ccc4c(c3)OCO4)n2)cc1Br | – |
| 0.79 µM | – | c1cncc(-c2cc(-n3ccnc3)ncn2)c1 | – |
| 13 µM | Not Active | COc1ccc(-c2nccc(NCc3ccc(Cl)cc3)n2)cc1 | – |
| 13 µM | – | Clc1ccc(CNc2ccnc(-c3cccnc3)n2)cc1Cl | – |
| – | Not Active | CN(C)c1ccc(-c2ncccn2)cc1 | IC50 [1]: Not Active |
| – | Not Active | Cc1ccc(CNc2ccnc(-c3c(C)noc3C)n2)cc1 | IC50 [1]: Not Active |
| 10.4 µM | – | Fc1ccc(CNc2ccnc(-c3ccc4c(c3)OCO4)n2)cc1F | – |
| 26 µM | Not Active | Cc1ccc(CNc2ccnc(-c3cccnc3)n2)cc1 | – |
| 4.63 µM | – | Clc1ccc(CNc2cc(-c3ccc4c(c3)OCO4)ncn2)cc1Cl | – |
| 16.4 µM | – | COc1cccc(-c2ncccn2)c1 | – |
| 23.2 µM | – | Cc1ccc(CNc2ccnc(-c3cccc(C#N)c3)n2)cc1 | – |

| Compound | IC50 ([1]; read-out: IC50) | IC50 [2] | other results |
| --- | --- | --- | --- |
| Clc1ccc(CNc2ccnc(-c3ccc4c(c3)OCO4)n2)cc1 | 41.2 µM | Not Active | – |
| c1cncc(CNc2nccc(-c3ccc4cn[nH]c4c3)n2)c1 | 0.04 µM | – | IC50 ([2]; read-out: IC50): 0.21 µM |
| c1cncc(CNc2cc(-c3ccc4c(c3)OCO4)ncn2)c1 | 6.54 µM | – | IC50 ([2]; read-out: IC50): 16.4 µM |
| Clc1ccc(CNc2cc(-c3ccc4c(c3)OCO4)ncn2)cc1 | 2.32 µM | – | – |
| Clc1ccc(CNc2ccnc(-c3ccc4c(c3)OCO4)n2)cn1 | 29.2 µM | – | IC50 ([2]; read-out: IC50): 29.2 µM |
| Cc1ccc(CNc2ccnc(-c3ccc4c(c3)OCO4)n2)cn1 | 32.8 µM | – | – |

Reference: ChEMBL document CHEMBL2390846, “Small-molecule pyrimidine inhibitors of the cdc2-like (Clk) and dual specificity tyrosine phosphorylation-regulated (Dyrk) kinases: development of chemical probe ML315” (Bioorg Med Chem Lett, 2013)
